Measured values reported in patent publication US20070254882A1, “Sulfamide Derivatives and Pharmaceutical Composition for Upregulation of Lipid Metabolism Comprising Same” (CRYSTAL GENOMICS, INC., priority 2004, published 2007).

Experiments:
human PPAR α [1] = molecular target: T1, human PPAR α (Homo sapiens, UniProt Q07869); assay: Exogeneous PPAR α agonist assay (GAL4 DNA binding domain/PPAR α ligand binding domain, luciferase) in 293T cells; assay type: cell-based; design: scale not given here; conditions: 25 μM compound, 48 hours, luciferase activity increase relative to the control
T1 construct: expressed in transfected cells; host or cells: HepG2 (ATCC HB-8065) or 293T cells (ATCC CRL-1573)
T1 sequence (Q07869 239-466 limits assumed): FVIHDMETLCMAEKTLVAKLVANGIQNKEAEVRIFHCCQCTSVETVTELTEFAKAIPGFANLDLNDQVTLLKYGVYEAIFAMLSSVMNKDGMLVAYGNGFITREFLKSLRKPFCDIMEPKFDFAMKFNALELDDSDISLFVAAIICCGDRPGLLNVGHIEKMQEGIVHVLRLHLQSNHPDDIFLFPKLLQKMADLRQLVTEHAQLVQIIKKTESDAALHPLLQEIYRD
Summary of the method: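 HepG2 or 293T cells (2×10^4/well) lipofectamine-transfected 3 hours with PPAR α, UAS firefly-luciferase and Renilla-luciferase constructs. Compounds then added at 25 μM final and incubated 48 hours at 37° C. PPAR α activation measured as dual firefly/Renilla luciferase luminescence.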

human PPAR α [2] = molecular target: T1, human PPAR α; assay: Exogeneous PPAR α agonist assay (GAL4 DNA binding domain/PPAR α ligand binding domain, luciferase) in HepG2 cells; assay type: cell-based; conditions: 25 μM compound, 48 hours, luciferase activity increase relative to the control
Method: Step 1) Exogeneous PPAR α Agonist Assay
Cross-activation assay of the compounds of Examples 1 to 134 against human PPAR α was carried out using a DNA construct of PPAR α including its ligand binding domain and GAL4 DNA binding domain (Sher et al., Biochemistry 32, 5598-5604, 1993) to analyze whether any of the compounds binds to the ligand binding domain of PPAR α expressed by the construct to affect the PPAR α activity. When the GAL4 DNA binding domainm which is fused with PPAR α ligand binding domain, binds to UAS (upstream activation sequence) of firefly-luciferase, the luciferase is expressed. Therefore, the effect of each of the compounds of Examples on PPAR α activation can be evaluated by analyzing the activation of luciferase.
Specifically, 2×10^4 of HepG2 (ATCC HB-8065) or 293T cells (ATCC CRL-1573) were aliquotted into each well of a 96-well plate and cultured for overnight at 37° C. in a CO2 incubator (culture condition: DMEM, 10% FBS and 1% antibiotics).
The transformation of PPAR α DNA was traced as follows. First, a mixture of the following ingredients in amounts per well; Solution A (Promega) containing 50 ng of full length human PPAR α DNA, 50 ng of firefly-luciferase construct, 5 ng of Renilla-luciferase construct, 1.0 μl of PLUS™ reagent, and 8.3 μl of a serum-free medium containing no antibiotics; was prepared and kept at room temperature for 15 min. Solution B, which contained 0.5 μl of Lipofectamine™ reagent and 9.5 μl of serum-free medium without antibiotics per well, and Solution C, which contained 50 μl of serum-free medium per well), were prepared. Solutions A, B and C were mixed together to prepare lipofectamin-DNA complex, and the mixture was kept at room temperature for 15 min. Single layer of cells on each well of a 96-well plate were washed with serum-free DMEM, 70 μl of lipofectamine-DNA complex prepared above was added thereto, the plate was incubated at 37° C. in a 5% CO2 incubator for 3 hours to transform the cells, and […] of a diluted solution of each of the compounds of Examples 1 to 134 per well was added to each well to a final concentration 25 μM, and incubated at 37° C. in a CO2 incubator for 48 hours. Then, the medium was removed, 50 μl of passive lysis buffer (Promega) was added thereto, and the plate was shook at room temperature for 20 min to lysis cells. 40 μl of Luciferase Assay reagent of Dual Luciferase Kit […] per 20 μl of cell lysis buffer was added to the plate, followed by reacting at 20° C. for 8 seconds, and 40 μl of Stop & Glo reagent (Promega) as a stop solution was added thereto to quench the reaction. The luminescence intensities of F-luciferase and R-luciferase were measured with MicroLumat Plus (Berthord Technology).

| Activity at 25 μM Step 1 293T cell (human PPAR α [1]) | Activity at 25 μM Step 1 HepG2 cell (human PPAR α [2]) | SMILES |
| --- | --- | --- |
| 5 | 34 | Cc1oc(-c2ccc(C(F)(F)F)cc2)nc1COc1cccc(CN(CC(=O)O)S(=O)(=O)N(C)c2cccc(F)c2)c1 [Example 23, [N—[N-(3-fluorophenyl)-N-methylamino]sulfonyl-N-[3-[[2-(4-trifluoromethylphenyl)-5-methyloxazol-4-yl]methoxy]benzyl]amino]acetic acid] |
| 5 | 30 | CCN(c1cccc(C)c1)S(=O)(=O)N(CC(=O)O)Cc1cccc(OCCc2nc(-c3ccc(C(F)(F)F)cc3)oc2C)c1 [Example 80, [N—(N-ethyl-N-m-tolylamino)sulfonyl-N-[3-[2-[2-(4-trifluoromethylphenyl)-5-methyloxazol-4-yl]ethoxy]benzyl]amino]acetic acid] |
| 2 | 11 | Cc1oc(-c2ccc(C(F)(F)F)cc2)nc1CCOc1cccc(CN(CC(=O)O)S(=O)(=O)N(C)C(C)C)c1 [Example 68, [N—(N-isopropyl-N-methylanmo)sulfonyl-N-[3-[2-[2-(4-trifluoromethylphenyl)-5-methyloxazol-4-yl]ethoxy]benzyl]amino]acetic acid] |
| 3 | 43 | Cc1ccc(-c2nc(COc3cccc(C(C)N(CC(=O)O)S(=O)(=O)N(C)C(C)C)c3)c(C)o2)cc1 (centres unmarked) [Example 129, [N—(N-isopropyl-N-methylamino)sulfonyl-N-[1-[[3-(5-methyl-2-p-tolyloxazol-4-yl)methoxy]phenyl]ethyl]amino]acetic acid] |
| 2 | 50 | CCN(CC)S(=O)(=O)N(CC(=O)O)Cc1cccc(OCCc2nc(-c3ccc(C(F)(F)F)cc3)oc2C)c1 [Example 67, [N—(N,N-diethylamino)sulfonyl-N-[3-[2-[2-(4-trifluoromethylphenyl)-5-methyloxazol-4-yl]ethoxy]benzyl]amino]acetic acid] |
| 3 | 22 | Cc1ccc(-c2nc(COc3cccc(CN([C@H](C(=O)O)C(C)C)S(=O)(=O)N(C)C)c3)c(C)o2)cc1 [Example 125, (S)-3-methyl-2-[N—(N,N-dimethylamino)sulfonyl-N-[3-[(5-methyl-2-p-tolyloxazol-4-yl)methoxy]benzyl]amino]butyric acid] |
| 6 | 25 | Cc1ccc(-c2nc(COc3cccc(CN([C@H](C(=O)O)C(C)C)S(N)(=O)=O)c3)c(C)o2)cc1 [Example 2, (S)-3-methyl-2-[N-(sulfamoyl)-N-[3-[(5-methyl-2-p-tolyloxazol-4-yl)methoxy]benzyl]amino]butyric acid] |
| 2 | 25 | CCN(CC)S(=O)(=O)N(CC(=O)O)C(C)c1cccc(OCc2nc(-c3ccc(C)cc3)oc2C)c1 (centres unmarked) [Example 128, [N—(N,N-diethylamino)sulfonyl-N-[1-[[3-(5-methyl-2-p-tolyloxazol-4-yl)methoxy]phenyl]ethyl]amino]acetic acid] |
| 3 | 50 | Cc1ccc(-c2nc(COc3cccc(C(C)N(CC(=O)O)S(=O)(=O)N4CCCC4)c3)c(C)o2)cc1 (centres unmarked) [Example 127, [N-(pyrrolidinyl)sulfonyl-N-[1-[[3-(5-methyl-2-p-tolyloxazol-4-yl)methoxy]phenyl]ethyl]amino]acetic acid] |
| 2 | 26 | Cc1oc(-c2ccc(C(F)(F)F)cc2)nc1CCOc1cccc(CN(CC(=O)O)S(=O)(=O)N(C)c2cccc(F)c2)c1 [Example 82, [N—[N-(3-fluorophenyl)-N-methylamino]sulfonyl-N-[3-[2-[2-(4-trifluoromethylphenyl)-5-methyloxazol-4-yl]ethoxy]benzyl]amino]acetic acid] |
